These results are taken from paper PMC5493349, “Quaternary structure is an essential component that contributes to the sophisticated allosteric regulation mechanism in a key enzyme from Mycobacterium tuberculosis” (PLoS ONE, 2017).

Assay [1] deals with MtuDAH7PSG232P (Mycobacterium tuberculosis, UniProt O53512, G232P). In kind it is biochemical.
Assay [2] has as its target MtuDAH7PSF227D (Mycobacterium tuberculosis, UniProt O53512, F227D). In kind it is biochemical.
Assay [3] has as its target T1, wild-type MtuDAH7PS (Mycobacterium tuberculosis, UniProt O53512). The conditions noted are these: cited from earlier work.
Assay [4] deals with T1, wild-type MtuDAH7PS. In kind it is biochemical.

For `N[C@@H](Cc1ccccc1)C(=O)O` [Phe, L-Phe], the “inhibition of dimeric variant MtuDAH7PSG232P” value in assay [1] came to 50%. In addition, the “inhibition of dimeric variant MtuDAH7PSF227D” value in assay [2] was 50%. Further, the “inhibition of wild-type enzyme by single amino acid, unsaturated E4P” value in assay [3] was 50%.

As to `N[C@@H](Cc1ccc(O)cc1)C(=O)O` [Tyr, L-Tyr], the “inhibition of dimeric variant MtuDAH7PSG232P” value in assay [1] is listed as 40%. For the same molecule, the “inhibition of dimeric variant MtuDAH7PSF227D” value in assay [2] was found to be 40%. In assay [3], the “inhibition of wild-type enzyme by single amino acid, unsaturated E4P” value was 47%. Besides, the “inhibition of wild-type enzyme” value in assay [4] is “no inhibition”.
